Whole-cell patch clamp data for two compounds are collected here from PMC6813354, “Bases of Bacterial Sodium Channel Selectivity Among Organic Cations” (Scientific Reports, 2019).

The target in this assay is T1, NaChBac (Halalkalibacterium halodurans, UniProt Q9KCR8).
T1 construct: gene BH1501; NaChBac in pTracer-CMV2, transiently expressed in tsA 201 cells; homotetramer
T1 sequence (Q9KCR8 1-274): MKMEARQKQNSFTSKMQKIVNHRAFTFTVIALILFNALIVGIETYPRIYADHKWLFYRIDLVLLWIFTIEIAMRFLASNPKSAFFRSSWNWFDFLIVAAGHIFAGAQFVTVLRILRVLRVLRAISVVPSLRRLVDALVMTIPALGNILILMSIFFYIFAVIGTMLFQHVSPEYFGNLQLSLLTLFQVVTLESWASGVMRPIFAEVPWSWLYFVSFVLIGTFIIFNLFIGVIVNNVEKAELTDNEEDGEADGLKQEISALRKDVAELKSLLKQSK
The assay can be described thus: whole-cell patch clamp. In kind it is cell-based. The settings on record: 142.5 mM external replacing Na+; pH 7.4; room temperature; weak pore block of Na+ current.

Take `CN` [MA^+, methylammonium]: the whole-cell patch clamp entry was “MA^+ reduces the sodium current amplitude more effectively than TMA^+ in WT and E191D mutant”.
To `C[N+](C)(C)C` [TMA^+, tetramethylammonium] belongs “different blocking effects of TMA^+ (purple) and MA^+ (orange), relative to Na^+ controls”.
